ChEMBL document CHEMBL1201862, “PubChem BioAssay data set” (2004)
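Cultured in 96-well plates, cells were exposed to test compound for 48 hours across five concentrations. Abbreviation: GI50, concentration required for 50% inhibition of growth.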 The source made the active and inactive calls. Rule as the data show it: active = GI50 up to about 1.1 µM and inactive = higher.

What was measured:
Experiment in all cases: NCI-60 cell line screen, 48 h
U-251 = system: U-251
SK-MEL-28 = system: SK-MEL-28
UACC-62 = system: UACC-62
OVCAR-8 = system: OVCAR-8
OVCAR-5 = system: OVCAR-5
COLO 205 = system: COLO 205
HL-60 = system: HL-60
CAKI-1 = system: CAKI-1
RPMI-8226 = system: RPMI-8226
ACHN = system: ACHN
SK-OV-3 = system: SK-OV-3
OVCAR-4 = system: OVCAR-4
UACC-257 = system: UACC-257
SK-MEL-5 = system: SK-MEL-5
HCT-15 = system: HCT-15
KM12 = system: KM12
SNB-19 = system: SNB-19
PC-3 = system: PC-3
SK-MEL-2 = system: SK-MEL-2

Row | Structure (SMILES) | GI50 (U-251) | GI50 (SK-MEL-28) | GI50 (UACC-62) | GI50 (OVCAR-8) | GI50 (OVCAR-5) | GI50 (COLO 205) | GI50 (HL-60) | GI50 (CAKI-1) | GI50 (RPMI-8226) | GI50 (ACHN) | GI50 (SK-OV-3) | GI50 (OVCAR-4) | GI50 (UACC-257) | GI50 (SK-MEL-5) | GI50 (HCT-15) | GI50 (KM12) | GI50 (SNB-19) | GI50 (PC-3) | GI50 (SK-MEL-2)
1 | CCn1c(CCCc2nc3c(=O)n(C)c(=O)n(C)c3[nH]2)nc2c1c(=O)n(C)c(=O)n2C | > 100 µM (inactive) | > 100 µM (inactive) | > 100 µM (inactive) | > 100 µM (inactive) | > 100 µM (inactive) | 12.1 µM (inactive) | 77.8 µM (inactive) | > 100 µM (inactive) | > 100 µM (inactive) | > 100 µM (inactive) | > 100 µM (inactive) | > 100 µM (inactive) | > 100 µM (inactive) | 14 µM (inactive) | > 100 µM | > 100 µM (inactive) | > 100 µM (inactive) | > 100 µM (inactive) | –
2 | COC(=O)C1(Cc2ccccc2)Cc2ccccc2C1O (configuration not stated) | > 100 µM (inactive) | > 100 µM (inactive) | > 100 µM (inactive) | > 100 µM (inactive) | > 100 µM (inactive) | > 100 µM (inactive) | > 100 µM (inactive) | > 100 µM (inactive) | > 100 µM (inactive) | > 100 µM (inactive) | > 100 µM (inactive) | 29.8 µM (inactive) | > 100 µM (inactive) | 37.3 µM (inactive) | > 100 µM | > 100 µM (inactive) | – | > 100 µM (inactive) | –
3 | C/C=C/[C@@]1(OC(=O)c2ccccc2)C[C@@H]2CCCC[C@@H]21 | 16.3 µM (inactive) | 17.9 µM (inactive) | 16.7 µM (inactive) | 18.5 µM (inactive) | 17.1 µM (inactive) | – | 14 µM (inactive) | 17.6 µM (inactive) | 16.6 µM (inactive) | 17.7 µM (inactive) | 18.5 µM (inactive) | 17 µM (inactive) | 18.3 µM (inactive) | 15.9 µM (inactive) | 19.5 µM | 17.4 µM (inactive) | 17.3 µM (inactive) | 20 µM (inactive) | 13.2 µM (inactive)
4 | COc1ccc(/N=N/C(=N/NC(=O)c2ccccc2)c2ccc(N(CCC#N)CCC#N)cc2C)cc1 | 60.5 µM (inactive) | – | 38.5 µM (inactive) | 51.8 µM (inactive) | > 100 µM (inactive) | 32.8 µM (inactive) | 32.6 µM (inactive) | > 100 µM (inactive) | > 100 µM (inactive) | 54.3 µM (inactive) | 75.3 µM (inactive) | > 100 µM (inactive) | 78.7 µM (inactive) | 18.2 µM (inactive) | 26.1 µM | 11.6 µM (inactive) | 50.9 µM (inactive) | 19.1 µM (inactive) | 88.5 µM (inactive)
5 | Cc1ccc(S(=O)(=O)N/N=C2\C3CC4CC(C3)C2C4)cc1 (configuration not stated) | > 100 µM (inactive) | > 100 µM (inactive) | > 100 µM (inactive) | > 100 µM (inactive) | > 100 µM (inactive) | > 100 µM (inactive) | > 100 µM (inactive) | > 100 µM (inactive) | > 100 µM (inactive) | – | > 100 µM (inactive) | > 100 µM (inactive) | > 100 µM (inactive) | > 100 µM (inactive) | > 100 µM | > 100 µM (inactive) | > 100 µM (inactive) | > 100 µM (inactive) | > 100 µM (inactive)
6 | N#CC(CCN1CCC(Nc2ccccc2)(c2nnnn2C2CCCCC2)CC1)(c1ccccc1)c1ccccc1 | > 100 µM (inactive) | > 100 µM (inactive) | > 100 µM (inactive) | > 100 µM (inactive) | > 100 µM (inactive) | > 100 µM (inactive) | > 100 µM (inactive) | – | > 100 µM (inactive) | > 100 µM (inactive) | > 100 µM (inactive) | > 100 µM (inactive) | > 100 µM (inactive) | > 100 µM (inactive) | > 100 µM | > 100 µM (inactive) | > 100 µM (inactive) | > 100 µM (inactive) | > 100 µM (inactive)
